Data: PubChem BioAssay AID248 (DTP/NCI, 2004)
Values joined by “and” are separate entries in the source; they are usually repeats but may differ in a detail not shown here. Identical values can stand only once. Toxic doses and inconclusive results are not listed.

Tested on: L1210 leukemia ip in BDF1 mice, survival T/C
Test: NCI In Vivo Anticancer Drug Screen. Data for tumor model L1210 Leukemia (intraperitoneal) in B6D2F1 (BDF1) mice
Details: endpoint: mean survival time, higher = longer survival
Procedure, shortened: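 Read-out is survival time, reported as the treated-group measurement over the vehicle-control measurement.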

[1] = dose: 25.0 mg/kg/injection, schedule: Q01DX009 (ip), vehicle: saline with Tween-80
[2] = dose: 50.0 mg/kg/injection, schedule: Q01DX009 (ip), vehicle: saline with Tween-80
[3] = dose: 100.0 mg/kg/injection, schedule: Q04DX003 (ip), vehicle: saline with Tween-80
[4] = dose: 200.0 mg/kg/injection, schedule: Q04DX003 (ip), vehicle: saline with Tween-80
[5] = dose: 400.0 mg/kg/injection, schedule: Q04DX003 (ip), vehicle: saline with Tween-80
[6] = dose: 100.0 mg/kg/injection, schedule: Q01DX009 (ip), vehicle: saline
[7] = dose: 100.0 mg/kg/injection, schedule: Q04DX003 (ip), vehicle: saline
[8] = dose: 200.0 mg/kg/injection, schedule: Q01DX009 (ip), vehicle: saline
[9] = dose: 200.0 mg/kg/injection, schedule: Q04DX003 (ip), vehicle: saline
[10] = dose: 400.0 mg/kg/injection, schedule: Q04DX003 (ip), vehicle: saline
[11] = dose: 100.0 mg/kg/injection, schedule: Q04DX003 (ip), vehicle: Klucel (hydroxypropylcellulose) (HPC)
[12] = dose: 200.0 mg/kg/injection, schedule: Q04DX003 (ip), vehicle: Klucel (hydroxypropylcellulose) (HPC)
[13] = dose: 100.0 mg/kg/injection, schedule: Q04DX002 (ip), vehicle: Klucel (hydroxypropylcellulose) (HPC)
[14] = dose: 200.0 mg/kg/injection, schedule: Q04DX002 (ip), vehicle: Klucel (hydroxypropylcellulose) (HPC)
[15] = dose: 400.0 mg/kg/injection, schedule: Q04DX002 (ip), vehicle: Klucel (hydroxypropylcellulose) (HPC)
[16] = dose: 50.0 mg/kg/injection, schedule: Q01DX009 (ip), vehicle: saline
[17] = dose: 400.0 mg/kg/injection, schedule: Q04DX003 (ip), vehicle: Klucel (hydroxypropylcellulose) (HPC)

## CNC(=O)NC1CC(OC2CC(O)(C(C)=O)Cc3c(O)c4c(c(O)c32)C(=O)c2c(OC)cccc2C4=O)OC(C)C1O (configuration not stated)
dose: 2.0 mg/kg/injection, schedule: Q04DX003 (ip), vehicle: water
  T/C: 103 % of control
dose: 3.12 mg/kg/injection, schedule: Q01DX009 (ip), vehicle: saline with Tween-80
  T/C: 108 % of control
dose: 4.0 mg/kg/injection, schedule: Q04DX003 (ip), vehicle: water
  T/C: 98 % of control
dose: 6.25 mg/kg/injection, schedule: Q01DX009 (ip), vehicle: saline with Tween-80
  T/C: 97 % of control
dose: 8.0 mg/kg/injection, schedule: Q04DX003 (ip), vehicle: water
  T/C: 107 % of control
dose: 12.5 mg/kg/injection, schedule: Q01DX009 (ip), vehicle: saline with Tween-80
  T/C: 103 % of control
dose: 12.5 mg/kg/injection, schedule: Q04DX003 (ip), vehicle: saline with Tween-80
  T/C: 100 % of control
dose: 16.0 mg/kg/injection, schedule: Q04DX003 (ip), vehicle: water
  T/C: 95 % of control and 103 % of control
[1]
  T/C: 112 % of control
dose: 25.0 mg/kg/injection, schedule: Q04DX003 (ip), vehicle: saline with Tween-80
  T/C: 100 % of control
dose: 32.0 mg/kg/injection, schedule: Q04DX003 (ip), vehicle: water
  T/C: 100 % of control
[2]
  T/C: 111 % of control
dose: 50.0 mg/kg/injection, schedule: Q04DX003 (ip), vehicle: saline with Tween-80
  T/C: 100 % of control
dose: 64.0 mg/kg/injection, schedule: Q04DX003 (ip), vehicle: water
  T/C: 104 % of control
[3]
  T/C: 100 % of control
dose: 125.0 micrograms/kg/injection, schedule: Q04DX003 (ip), vehicle: water
  T/C: 104 % of control
dose: 250.0 micrograms/kg/injection, schedule: Q04DX003 (ip), vehicle: water
  T/C: 104 % of control
dose: 500.0 micrograms/kg/injection, schedule: Q04DX003 (ip), vehicle: water
  T/C: 105 % of control
dose: 1000.0 micrograms/kg/injection, schedule: Q04DX003 (ip), vehicle: water
  T/C: 104 % of control
dose: 2000.0 micrograms/kg/injection, schedule: Q04DX003 (ip), vehicle: water
  T/C: 101 % of control

## C=CCOc1ccccc1C(C)=O
[3]
  T/C: 97 % of control
[4]
  T/C: 97 % of control
[5]
  T/C: 89 % of control

## NC(=O)C(N)Cc1ccc(O)c(O)c1 (configuration not stated)
[6]
  T/C: 107 % of control
[7]
  T/C: 102 % of control
[8]
  T/C: 102 % of control
[9]
  T/C: 98 % of control
dose: 400.0 mg/kg/injection, schedule: Q01DX009 (ip), vehicle: saline
  T/C: 109 % of control
[10]
  T/C: 115 % of control
dose: 800.0 mg/kg/injection, schedule: Q01DX009 (ip), vehicle: saline
  T/C: 103 % of control and 114 % of control
dose: 1600.0 mg/kg/injection, schedule: Q01DX009 (ip), vehicle: saline
  T/C: 104 % of control

## CN=C(NC)c1ccc(Cl)c(Cl)c1
[11]
  T/C: 96 % of control
[12]
  T/C: 98 % of control

## CCOC(=O)c1c(NC(=O)C(F)(F)F)[nH]c(SSc2[nH]c(NC(=O)C(F)(F)F)c(C(=O)OCC)c2C(=O)OCC)c1C(=O)OCC
[1]
  T/C: 97 % of control
[2]
  T/C: 102 % of control
dose: 100.0 mg/kg/injection, schedule: Q01DX009 (ip), vehicle: saline with Tween-80
  T/C: 97 % of control
[3]
  T/C: 105 % of control
[4]
  T/C: 86 % of control

## CCCC(C)c1ccc(N=NC2C(=O)c3ccccc3C2=O)cc1 (configuration not stated)
dose: 50.0 mg/kg/injection, schedule: Q01DX001 (ip), vehicle: saline
  T/C: 100 % of control
dose: 100.0 mg/kg/injection, schedule: Q01DX001 (ip), vehicle: saline
  T/C: 94 % of control
dose: 200.0 mg/kg/injection, schedule: Q01DX001 (ip), vehicle: saline
  T/C: 94 % of control
dose: 400.0 mg/kg/injection, schedule: Q01DX001 (ip), vehicle: saline
  T/C: 103 % of control

## Cc1cccc(N2P(N(C)C)N(c3cccc(C)c3)P2(=O)N(C)C)c1 (configuration not stated)
[13]
  T/C: 97 % of control
[14]
  T/C: 111 % of control
[15]
  T/C: 94 % of control

## O=c1[nH]nnc2ccccc12
[16]
  T/C: 90 % of control
[6]
  T/C: 90 % of control
dose: 100.0 mg/kg/injection, schedule: Q04DX003 (ip), vehicle: alcohol
  T/C: 98 % of control
dose: 200.0 mg/kg/injection, schedule: Q04DX003 (ip), vehicle: alcohol
  T/C: 100 % of control

## COC1C(NC(=O)N(CCCl)N=O)C(OC(C)=O)OC(COC(C)=O)C1OC(C)=O (configuration not stated)
dose: 1.8 mg/kg/injection, schedule: Q01DX001 (ip), vehicle: saline with Tween-80
  T/C: 118 % of control
dose: 2.6 mg/kg/injection, schedule: Q01DX001 (ip), vehicle: saline with Tween-80
  T/C: 181 % of control
dose: 4.0 mg/kg/injection, schedule: Q01DX001 (ip), vehicle: saline with Tween-80
  T/C: 154 % of control
dose: 6.0 mg/kg/injection, schedule: Q01DX001 (ip), vehicle: saline with Tween-80
  T/C: 259 % of control [middle of 4 runs]
dose: 9.0 mg/kg/injection, schedule: Q01DX001 (ip), vehicle: saline with Tween-80
  T/C: 283 % of control and 162 % of control
dose: 13.0 mg/kg/injection, schedule: Q01DX001 (ip), vehicle: saline with Tween-80
  T/C: 333 % of control and 232 % of control
dose: 20.0 mg/kg/injection, schedule: Q01DX001 (ip), vehicle: saline with Tween-80
  T/C: 155 % of control and 154 % of control
dose: 30.0 mg/kg/injection, schedule: Q01DX001 (ip), vehicle: saline with Tween-80
  T/C: 86 % of control

## CCC/C=C(/CC(=O)O)C(=O)O
[7]
  T/C: 95 % of control
[9]
  T/C: 100 % of control
[10]
  T/C: 97 % of control

## CC1=C(c2ccccc2)C2(c3ccccc3)C3(C)C(=O)C(C)(C(c4ccccc4)C3c3ccccc3)C2(C)C1=O (configuration not stated)
dose: 100.0 mg/kg/injection, schedule: Q04DX002 (ip), vehicle: gum acacia
  T/C: 97 % of control
dose: 200.0 mg/kg/injection, schedule: Q04DX002 (ip), vehicle: gum acacia
  T/C: 91 % of control
dose: 400.0 mg/kg/injection, schedule: Q04DX002 (ip), vehicle: gum acacia
  T/C: 94 % of control

## CC(=O)C1C=NC(C)(C)C(C)(C)N=CC(C(C)=O)C(C)=NCCCN=C1C.[Ni] (configuration not stated)
dose: 12.5 mg/kg/injection, schedule: Q04DX002 (ip), vehicle: saline
  T/C: 97 % of control
dose: 25.0 mg/kg/injection, schedule: Q04DX002 (ip), vehicle: saline
  T/C: 97 % of control

## O=C(COc1ccccc1)CC(O)(C(F)(F)F)C(F)(F)F
[3]
  T/C: 97 % of control
[4]
  T/C: 92 % of control

## COc1cc([N+](C)(C)C)nc(OC)n1
dose: 22.0 mg/kg/injection, schedule: Q01DX Z (ip), vehicle: saline
  T/C: 98 % of control
dose: 34.0 mg/kg/injection, schedule: Q01DX Z (ip), vehicle: saline
  T/C: 110 % of control
dose: 50.0 mg/kg/injection, schedule: Q01DX Z (ip), vehicle: saline
  T/C: 104 % of control

## CCOC(=O)C(=CN(C(C)C)C(C)C)C(=O)OCC
[16]
  T/C: 100 % of control
[6]
  T/C: 98 % of control
[3]
  T/C: 94 % of control
[8]
  T/C: 101 % of control
[4]
  T/C: 100 % of control

## CCOC(=O)C1C(=O)CC(=O)C(C(=O)OCC)C1c1ccc(OC)c(OC)c1OC (configuration not stated)
[13]
  T/C: 103 % of control
[14]
  T/C: 101 % of control
[15]
  T/C: 113 % of control

## COc1ccc(Cl)cc1NC(=O)C(Br)C(Br)C(=O)O (configuration not stated)
dose: 100.0 mg/kg/injection, schedule: Q01DX009 (ip), vehicle: other
  T/C: 96 % of control
dose: 200.0 mg/kg/injection, schedule: Q01DX009 (ip), vehicle: other
  T/C: 100 % of control

## O=C(O)c1ccc(COc2ccc([N+](=O)[O-])cc2Cl)cc1
dose: 100.0 mg/kg/injection, schedule: Q01DX009 (ip), vehicle: saline sonified
  T/C: 96 % of control
[3]
  T/C: 96 % of control
dose: 200.0 mg/kg/injection, schedule: Q01DX009 (ip), vehicle: saline sonified
  T/C: 97 % of control
[4]
  T/C: 96 % of control
[5]
  T/C: 101 % of control

## Cc1nc(N)[nH]c(=O)c1Br
dose: 100.0 mg/kg/injection, schedule: Q01DX009 (ip), vehicle: Klucel (hydroxypropylcellulose) (HPC)
  T/C: 97 % of control
[11]
  T/C: 93 % of control
dose: 200.0 mg/kg/injection, schedule: Q01DX009 (ip), vehicle: Klucel (hydroxypropylcellulose) (HPC)
  T/C: 100 % of control
[12]
  T/C: 98 % of control
[17]
  T/C: 98 % of control

## CCCCCCCCCCCCCCCCNc1cccc2ccccc12
[11]
  T/C: 90 % of control
[12]
  T/C: 90 % of control
[17]
  T/C: 91 % of control

## COc1c(N)cc2c(c1C)OC(C)(C)C=C2
[1]
  T/C: 109 % of control
[2]
  T/C: 101 % of control
[3]
  T/C: 101 % of control and 94 % of control
[4]
  T/C: 100 % of control
